From PubChem BioAssay AID720587 (Broad Institute, 2013)
Active and inactive are the calls of the source.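 Rule for the calls: active = fitted curve reaches -35% activity change at a concentration below twice the top valid dose tested; inactive = the rest, including effects opposite to the expected direction.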

Assay: A673 Ewing sarcoma viability loss – cell-based, CellTiter-Glo luminescence, cherry-pick retest, confirmation (AID 720587)
Details: A673 Ewing sarcoma viability, CellTiter-Glo ATP luminescence, 72 h; at 23.5 µM (top of the series)
In the case of `N#C[C@H]1[C@H](c2ccc(C#Cc3ccccc3F)cc2)[C@@H](CO)N1C(=O)C1CCCCC1`, the activity change, negative = cytotoxicity is reported as -7.62% (inactive).

Same assay, conditions: A673 Ewing sarcoma viability, CellTiter-Glo ATP luminescence, 72 h; at 26 µM (top of the series)
With `CC(=O)c1ccc(N=C2C(=O)Nc3ccccc32)cc1` the activity change, negative = cytotoxicity was -4.29% (inactive). For `Cc1ccccc1N=CC1=C(O)c2ccccc2C1=O`, the activity change, negative = cytotoxicity was -6.09% (inactive). In the case of `C(=N\Nc1ccc2ccccc2n1)/c1ccc2c(c1)OCCO2`, the activity change, negative = cytotoxicity is reported as -22.2% (inactive). For `Cc1ccc(Cc2c(-c3ccco3)nc3c(C)cc(Br)cn23)cc1`, the activity change, negative = cytotoxicity was 2.77% (inactive). With `CCCn1c(C)cc(C(=O)CN2C(=O)c3ccccc3S2(=O)=O)c1C` the activity change, negative = cytotoxicity was 11.3% (inactive). For `COc1ccc(NC(=O)c2cc3ccccc3oc2=O)cc1`, the activity change, negative = cytotoxicity was -20.8% (inactive). For `COc1ccc(CNc2ncc(-c3ccc(F)cc3)n2C)c2ccccc12`, the activity change, negative = cytotoxicity was 2.68% (inactive). In the case of `O=C(C[C@@H]1CC[C@@H]2[C@H](COC[C@@H](O)CN2S(=O)(=O)c2ccc(F)cc2)O1)NCc1ccc(Cl)c(Cl)c1`, the activity change, negative = cytotoxicity is reported as 8.17% (inactive). With `COc1ccc2oc(-c3ccccc3)cc(=O)c2c1` the activity change, negative = cytotoxicity was -12.3% (inactive). In the case of `COc1ccc2oc(C(=O)NCCc3ccccc3)c(C)c2c1`, the activity change, negative = cytotoxicity is reported as -2.64% (inactive). For `COc1ccccc1CNC(=O)C[C@@H]1CC[C@H]2[C@@H](COC[C@H](O)CN2C(=O)Nc2ccc(C(F)(F)F)cc2)O1`, the activity change, negative = cytotoxicity was -9.47% (inactive). For `O=C(Nc1ccc(NC(=O)c2cc3ccccc3o2)cc1)c1ccc2c(c1)OCCO2`, the activity change, negative = cytotoxicity was 7.76% (inactive). In the case of `O=C(CCCN1C(=O)/C(=C/c2ccccc2Cl)SC1=S)NNC(=O)c1ccc(Cl)cc1Cl`, the activity change, negative = cytotoxicity is reported as -0.616% (inactive). With `Cc1c(Cl)cnc(NC(=O)COC(=O)c2ccc3ncsc3c2)c1Cl` the activity change, negative = cytotoxicity was 12.1% (inactive). In the case of `CCOc1ccc(NC(=O)C(=O)N/N=C\c2ccc(CNS(=O)(=O)c3ccccc3)o2)cc1`, the activity change, negative = cytotoxicity is reported as -1.27% (inactive). In the case of `Nc1ccc2c(c1)OC1(CCCC1)O2`, the activity change, negative = cytotoxicity is reported as -14.9% (inactive). For `O=C(CNC(c1ccccc1)c1ccccc1)Nc1ccccc1-c1ccccc1`, the activity change, negative = cytotoxicity was -1.93% (inactive). For `COc1ccc(/C=C2\SC(=S)N(CCCC(=O)NC3CCCC3)C2=O)cc1OC`, the activity change, negative = cytotoxicity was -18.4% (inactive). With `COC(=O)COc1ccc(-c2nccc(-c3ccccn3)n2)cc1` the activity change, negative = cytotoxicity was 11.6% (inactive). In the case of `CCCN(C)C[C@H]1Oc2ncc(-c3ccccc3)cc2C(=O)N([C@@H](C)CO)C[C@H]1C`, the activity change, negative = cytotoxicity is reported as -4.17% (inactive). With `Cc1c(-c2nc(-c3ccc(C(C)(C)C)cc3)no2)n(C)oc1=O` the activity change, negative = cytotoxicity was 2.17% (inactive). With `COC(=O)c1cccc(NC(=O)NC(=O)c2ccccc2Cl)c1` the activity change, negative = cytotoxicity was -9.77% (inactive). With `C/C(=N\N(c1ccccc1)c1ccccc1)c1ccco1` the activity change, negative = cytotoxicity was -1.2% (inactive). With `Cc1c(CC(=O)NCCCC(=O)O)c(=O)oc2cc3c(cc12)CCC(C)(C)O3` the activity change, negative = cytotoxicity was -4.88% (inactive). In the case of `Cc1ccc(C(=O)CN2C(=O)c3ccccc3S2(=O)=O)cc1`, the activity change, negative = cytotoxicity is reported as 11.7% (inactive). In the case of `Cc1ccc(NC(=O)COC(=O)c2ccc3c(c2)OCO3)cc1S(=O)(=O)N1CCCCC1`, the activity change, negative = cytotoxicity is reported as -4.65% (inactive). With `CCN1CCN(/C=N/c2nc3c(s2)CCCC3)CC1` the activity change, negative = cytotoxicity was -1.1% (inactive). With `COCCCNc1ccn2nc(-c3ccccc3)cc2n1` the activity change, negative = cytotoxicity was 0.68% (inactive). For `COC(=O)c1c(C)[nH]c(/C=N/Nc2ccccc2)c1C`, the activity change, negative = cytotoxicity was 5.78% (inactive). In the case of `N/C(Cc1nc(-c2ccc(F)cc2)cs1)=N\O`, the activity change, negative = cytotoxicity is reported as -2.03% (inactive). With `Cc1ccc(N=C2NC(=O)/C(=C\c3cccs3)S2)cc1C` the activity change, negative = cytotoxicity was 1.74% (inactive). With `CCOC(=O)C1CCCCN1C(=O)CCc1c(C)nc2cc(-c3ccccc3)nn2c1C` (stereo not given) the activity change, negative = cytotoxicity was -3.12% (inactive). For `CN(C(=O)COC(=O)c1cc(-c2ccccc2Cl)nc2ccccc12)C1CCS(=O)(=O)C1` (stereo not given), the activity change, negative = cytotoxicity was -1.76% (inactive). With `O=c1c2ccccc2oc2cc(C#CC3(O)CCCCC3)ccc12` the activity change, negative = cytotoxicity was 6.95% (inactive). In the case of `Cc1ccc(Cl)cc1NC(=O)Cn1cc(C(F)(F)F)cc(Cl)c1=O`, the activity change, negative = cytotoxicity is reported as 10.1% (inactive). With `CN(C)[C@@H]1CCC[C@@H]1OC(=O)C(c1ccccc1)c1ccccc1` the activity change, negative = cytotoxicity was -2.99% (inactive). For `COc1ccc(/C=C2/SC(=S)N(CCCC(=O)Nc3ccccc3C(=O)O)C2=O)cc1`, the activity change, negative = cytotoxicity was 5.45% (inactive). With `O=C(O)c1ccc2cc(-c3ccccc3)[nH]c2c1` the activity change, negative = cytotoxicity was -2.41% (inactive). With `COc1cc(/C=N/NC(=O)c2csc3c2CCCC3)cc(OC)c1O` the activity change, negative = cytotoxicity was 0.143% (inactive). For `O=C(NCc1ccccn1)c1ccc(CNS(=O)(=O)c2cccc(Cl)c2)cc1`, the activity change, negative = cytotoxicity was 0.155% (inactive). In the case of `O=C(CNC(=O)Cc1ccccc1)N=Nc1c(O)n(Cc2ccc3c(c2)OCO3)c2ccccc12`, the activity change, negative = cytotoxicity is reported as -1.52% (inactive). For `c1ccc(-c2ccc([C@H]3[C@H]4CNC[C@@H]3N4Cc3cc(-c4ccccc4)on3)cc2)cc1`, the activity change, negative = cytotoxicity was -11.9% (inactive). With `CCNC(=O)c1cccc(S(=O)(=O)N2CCCCCC2)c1` the activity change, negative = cytotoxicity was 0.705% (inactive). With `COc1cc(OC)cc(-c2cc3nc(C)c(CCC(=O)NCc4ccccc4)c(C)n3n2)c1` the activity change, negative = cytotoxicity was 6.68% (inactive). With `CCCc1cc(=O)oc2c3c(c4c(c12)OC(C)(C)C=C4)OC(C)C(C)C3O` (stereo not given) the activity change, negative = cytotoxicity was -3.35% (inactive). With `O=C(/C=C/c1ccc(Cl)cc1Cl)N(Cc1ccc(Cl)cc1)C1CCS(=O)(=O)C1` (stereo not given) the activity change, negative = cytotoxicity was 2.8% (inactive). With `COc1ccc(/C=C2\SC(=O)N(CCCC(=O)Nc3ccc(C(=O)O)cc3)C2=O)cc1` the activity change, negative = cytotoxicity was -0.477% (inactive). In the case of `C[C@@H]1CN([C@@H](C)CO)S(=O)(=O)c2ccc(C#Cc3ccncc3)cc2O[C@H]1CN(C)C(=O)C1CCOCC1`, the activity change, negative = cytotoxicity is reported as -7.5% (inactive). In the case of `C=CCOC(=O)c1sc(NC(=O)c2ccc(OC)cc2)nc1C`, the activity change, negative = cytotoxicity is reported as -13% (inactive). In the case of `COc1ccc(C(=O)CN2C(=O)c3ccccc3S2(=O)=O)cc1`, the activity change, negative = cytotoxicity is reported as 1.43% (inactive). With `Cc1ccsc1/C=N/Nc1cccc(C(=O)O)c1` the activity change, negative = cytotoxicity was -8.75% (inactive). With `C(=C\c1ccc(C2[C@H]3CNC[C@@H]2N3Cc2ccccn2)cc1)/c1ccccc1` (stereo not given in full) the activity change, negative = cytotoxicity was -3.03% (inactive). In the case of `O=C(Nc1nc(-c2ccc(F)c(F)c2)cs1)c1ccc(OCC2CCCO2)cc1` (stereo not given), the activity change, negative = cytotoxicity is reported as 5.7% (inactive). For `O=C1Nc2ccccc2C1=Nc1ccc(Br)cc1`, the activity change, negative = cytotoxicity was -3.12% (inactive). With `CC(NC(=O)c1ccco1)c1nc(-c2ccc(C(C)(C)C)cc2)no1` (stereo not given) the activity change, negative = cytotoxicity was -2.68% (inactive). With `Cc1noc(C)c1NC(=O)Nc1ccc2c(c1)CC(=O)N([C@H](C)CO)C[C@@H](C)[C@@H](CN(C)Cc1ccc(Cl)c(Cl)c1)O2` the activity change, negative = cytotoxicity was 7.25% (inactive). With `Nc1ccc(Oc2cccc(Oc3ccc(N)cc3)c2)cc1` the activity change, negative = cytotoxicity was -3.72% (inactive). In the case of `Cc1ccc(NC(=O)CCN2CCCCC2)cc1`, the activity change, negative = cytotoxicity is reported as 12.4% (inactive). In the case of `COc1ccc(OC)c(-c2cc(C(F)(F)F)c3c(n2)sc2c(O)cc(=O)[nH]c23)c1`, the activity change, negative = cytotoxicity is reported as -2.54% (inactive).
